We go through seven molecules from US5252601A, “2-mercaptomethylene-tetrahydronaphthalene and indane-2-carboxamide derivatives as enkephalinase inhibitors” (Merrell Dow Pharmaceuticals Inc., priority 1992, dated 1993).

Read-outs that look alike come from different tables or passages of the source.

In experiment [1] the target is T1, Enkephalinase (Rattus norvegicus, UniProt P07861).
T1 construct: Enkephalinase is partially purified from rat kidney; from tissue; host or cells: rat kidney, microvilli fraction (Triton X-100 extract or proteolytic treatment, then Mono Q anion exchange)
T1 sequence (P07861 1-750): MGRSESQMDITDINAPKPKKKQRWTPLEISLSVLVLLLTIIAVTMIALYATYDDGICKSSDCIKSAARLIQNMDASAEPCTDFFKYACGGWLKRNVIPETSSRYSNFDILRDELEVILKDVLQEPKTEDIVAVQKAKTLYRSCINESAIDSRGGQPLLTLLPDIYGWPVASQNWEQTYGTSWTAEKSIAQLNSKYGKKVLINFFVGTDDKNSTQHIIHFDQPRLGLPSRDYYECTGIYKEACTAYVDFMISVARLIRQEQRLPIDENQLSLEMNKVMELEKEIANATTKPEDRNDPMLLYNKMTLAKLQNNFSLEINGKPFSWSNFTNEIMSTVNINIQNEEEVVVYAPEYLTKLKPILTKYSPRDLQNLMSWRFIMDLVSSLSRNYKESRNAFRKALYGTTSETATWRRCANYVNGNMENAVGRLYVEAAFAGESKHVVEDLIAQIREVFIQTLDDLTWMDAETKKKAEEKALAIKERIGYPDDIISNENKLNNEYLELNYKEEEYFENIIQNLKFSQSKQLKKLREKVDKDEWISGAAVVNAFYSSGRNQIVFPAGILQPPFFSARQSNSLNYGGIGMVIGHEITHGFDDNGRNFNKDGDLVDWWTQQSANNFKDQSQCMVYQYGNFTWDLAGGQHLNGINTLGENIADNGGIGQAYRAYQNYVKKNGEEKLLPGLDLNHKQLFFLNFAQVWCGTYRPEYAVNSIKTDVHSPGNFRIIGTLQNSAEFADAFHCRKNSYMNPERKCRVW
The experiment can be described thus: Enkephalinase inhibition, fluorometric assay with dansyl-D-AlaGly(p-nitro)PheGly substrate. Format: biochemical. As to conditions: 50 mM HEPES pH 7.4, 25° C.; for Ki: enzyme partially purified from rat kidney, 12 μM substrate. The source says: Enkephalinase is partially purified from rat kidney. The enzyme is extracted from the microvilli fraction by using Triton X-100 according to the method of Malfroy and Schwartz [J. Biol. Chem. 259, 14365-14370 (1984)] or by using a proteolytic treatment according to the method of Almenoff and Orlowski [Biochem. 22, 590-599 (1983)]. The enzyme is further purified by anion exchange chromatography (Mono QTM column, Pharmacia) using a Pharmacia FPLC system. The enzyme activity may be measured by the fluorometric methods of Florentin et al. [Anal. Biochem. 141, 62-69 (1984)] or of Almenoff and Orlowski [J. Neurochemistry 42, 151-157 (1984)]. […] The substrate (and inhibitor) is added from a concentrated stock solution in DMSO (up to […] DMSO final volume). The enzyme in a small volume (approximately 0.1 μg of FPLC purified protein) is added to initiate the reaction and the rate of fluorecense increase is recorded continuously using a fluorometer (excitation at 339 nm, emission at 562 nm).

Experiment [2] deals with specific binding sites in various tissues including kidney, adrenal, aorta, and vascular smooth muscle. Particulars: Needleman, Hypertension 7, 469 (1985), cited from earlier work.

What is called Ki is a measure of affinity in units of concentration, obtained from inhibition or displacement. Low readings indicate tighter binding, high ones weaker binding. `O=C(N[C@H]1CC[C@@H](C(=O)O)CC1)C1(CS)CCc2ccccc2C1` (relative stereo) [100,552, 4-[[[1,2,3,4-Tetrahydro-2-(mercarptomethyl)-2-naphthalenyl]carbonyl]amino]- cis-cyclohexanecarboxylic acid] gave a Ki in experiment [1] of 0.6 nM.
`O=C(O)CCNC(=O)C1(CS)CCc2ccccc2C1` (stereo not drawn) [100,185, N-[[1,2,3,4-Tetrahydro-2-(mercarptomethyl)-2-naphthalenyl]carbonyl]-β-alanine] returned a Ki in experiment [1] of no more than 0.2 nM.
Regarding `O=C(O)CNC(=O)C1(CS)CCc2ccccc2C1` (centres unmarked) [100,250, N-[[1,2,3,4-Tetrahydro-2-(mercarptomethyl)-2-naphthalenyl]carbonyl]-glycine], the inhibition constant (Ki) in experiment [1] stood at 0.4 nM.
`CC(C)[C@H](NC(=O)C1(CS)CCc2ccccc2C1)C(=O)O` (stereo partly drawn) [101,782, N-[[1,2,3,4-Tetrahydro-2-(mercarptomethyl)-2-naphthalenyl]carbonyl]-L-valine] returned an inhibitory constant (Ki) in experiment [1] of 2 nM.
Consider `C[C@H](NC(=O)C1(CS)CCc2ccccc2C1)C(=O)O` (stereo partly drawn) [101,890, N-[[1,2,3,4-Tetrahydro-2-(mercarptomethyl)-2-naphthalenyl]carbonyl]-L-alanine], for which the inhibition constant (Ki) in experiment [1] is 0.3 nM.
With “ANP: family of naturally-occurring peptides which are involved in the homeostatic regulation of blood pressure, as well as sodium and water levels”, the Kd was no less than 0.05 nM in experiment [2] (affinities ranging from about, read-out: affinity (lower end of range)) and no more than 500 nM in experiment [2] (affinities ranging to about, read-out: affinity (upper end of range)).
As a reminder, the Km is the concentration of substrate that gives half-maximal velocity. In the case of “dansyl-D-AlaGly(p-nitro)PheGly [reference compound]”, in experiment [1] (substrate of the assay), the Michaelis-Menten constant (Km) was 40 µM.
